Assay results taken from patent publication US9745261B2, “Inhibitors of the MITF molecular pathway” (THE GENERAL HOSPITAL CORPORATION, priority 2013, dated 2017).

Assays:
TRPM1 = experiment: qPCR assay for TRPM1 expression in SK-MEL-5 cells; format: cell-based; settings: Homo sapiens; SK-MEL-5 melanoma cells, up to 35 μM; read-out: TRPM-1 qPCR assay EC50
Adrenergic β2 = biological target: T1, Adrenergic β2 (Homo sapiens, UniProt P07550); experiment: Radioligand binding, Adrenergic β2
T1 construct: Eurofins Panlabs, Inc. (contract assay)
T1 sequence (P07550 whole entry): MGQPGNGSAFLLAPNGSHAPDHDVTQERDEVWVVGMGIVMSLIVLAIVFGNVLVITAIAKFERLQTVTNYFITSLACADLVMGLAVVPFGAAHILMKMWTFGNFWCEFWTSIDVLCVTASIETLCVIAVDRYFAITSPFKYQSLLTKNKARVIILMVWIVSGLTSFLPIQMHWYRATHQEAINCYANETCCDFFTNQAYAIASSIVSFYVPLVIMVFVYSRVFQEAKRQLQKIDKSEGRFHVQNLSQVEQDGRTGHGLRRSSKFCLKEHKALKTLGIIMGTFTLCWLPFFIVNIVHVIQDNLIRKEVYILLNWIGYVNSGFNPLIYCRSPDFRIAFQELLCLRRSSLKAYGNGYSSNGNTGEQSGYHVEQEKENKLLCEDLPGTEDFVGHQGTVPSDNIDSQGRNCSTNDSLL

[1] = biological target: T2, Epidermal Growth Factor (EGF) (Homo sapiens, UniProt P00533); experiment: Radioligand binding, Epidermal Growth Factor (EGF)
T2 construct: Eurofins Panlabs, Inc. (contract assay)

Estrogen ERα = biological target: T3, Estrogen ERα (Homo sapiens, UniProt P03372); experiment: Radioligand binding, Estrogen ERα
T3 construct: Eurofins Panlabs, Inc. (contract assay)
T3 sequence (P03372 whole entry): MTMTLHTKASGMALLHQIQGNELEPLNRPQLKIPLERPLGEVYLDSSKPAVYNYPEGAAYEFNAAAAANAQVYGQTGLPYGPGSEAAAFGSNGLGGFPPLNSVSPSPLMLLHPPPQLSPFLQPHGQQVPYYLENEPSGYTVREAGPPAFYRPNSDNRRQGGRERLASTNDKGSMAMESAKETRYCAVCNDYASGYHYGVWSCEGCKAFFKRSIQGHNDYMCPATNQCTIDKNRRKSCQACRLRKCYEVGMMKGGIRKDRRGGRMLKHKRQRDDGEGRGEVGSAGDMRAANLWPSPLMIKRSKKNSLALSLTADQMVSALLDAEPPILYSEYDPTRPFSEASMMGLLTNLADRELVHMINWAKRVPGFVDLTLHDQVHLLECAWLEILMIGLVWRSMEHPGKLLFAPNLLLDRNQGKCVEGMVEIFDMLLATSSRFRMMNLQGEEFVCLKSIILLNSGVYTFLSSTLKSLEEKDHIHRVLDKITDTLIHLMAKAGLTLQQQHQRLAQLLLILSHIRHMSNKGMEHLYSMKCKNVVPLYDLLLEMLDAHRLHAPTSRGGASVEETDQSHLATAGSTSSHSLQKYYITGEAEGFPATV

GABAB1A = biological target: T4, GABAB1A (Homo sapiens, UniProt Q9UBS5); experiment: Radioligand binding, GABAB1A
T4 construct: Eurofins Panlabs, Inc
T4 sequence (Q9UBS5 15-961 limits assumed): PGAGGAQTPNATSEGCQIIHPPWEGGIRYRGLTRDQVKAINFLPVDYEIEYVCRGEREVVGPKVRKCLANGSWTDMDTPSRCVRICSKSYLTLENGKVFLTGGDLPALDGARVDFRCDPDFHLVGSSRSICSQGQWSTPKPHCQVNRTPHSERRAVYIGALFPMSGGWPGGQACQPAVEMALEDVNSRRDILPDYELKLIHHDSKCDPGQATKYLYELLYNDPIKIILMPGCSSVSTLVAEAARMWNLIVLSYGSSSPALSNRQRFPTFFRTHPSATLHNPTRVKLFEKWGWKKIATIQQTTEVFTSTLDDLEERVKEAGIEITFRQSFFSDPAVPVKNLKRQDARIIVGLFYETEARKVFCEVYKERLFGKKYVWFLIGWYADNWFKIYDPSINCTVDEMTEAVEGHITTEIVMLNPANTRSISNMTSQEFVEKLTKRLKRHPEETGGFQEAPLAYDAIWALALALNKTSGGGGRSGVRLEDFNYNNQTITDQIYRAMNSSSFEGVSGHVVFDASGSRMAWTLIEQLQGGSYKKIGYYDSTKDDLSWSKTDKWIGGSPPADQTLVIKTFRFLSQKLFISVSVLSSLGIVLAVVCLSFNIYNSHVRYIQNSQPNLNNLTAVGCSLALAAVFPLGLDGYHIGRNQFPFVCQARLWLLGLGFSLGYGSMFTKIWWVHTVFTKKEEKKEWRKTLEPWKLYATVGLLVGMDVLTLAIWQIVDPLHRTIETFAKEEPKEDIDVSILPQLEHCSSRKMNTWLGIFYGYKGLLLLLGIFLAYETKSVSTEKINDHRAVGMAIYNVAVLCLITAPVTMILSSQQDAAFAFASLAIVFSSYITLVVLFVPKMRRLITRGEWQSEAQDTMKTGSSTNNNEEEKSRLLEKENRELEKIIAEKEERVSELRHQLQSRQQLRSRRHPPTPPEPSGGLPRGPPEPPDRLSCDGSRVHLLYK

Muscarinic M2 = biological target: T5, Muscarinic M2 (Homo sapiens, UniProt P08172); experiment: Radioligand binding, Muscarinic M2
T5 construct: Eurofins Panlabs, Inc
T5 sequence (P08172 whole entry): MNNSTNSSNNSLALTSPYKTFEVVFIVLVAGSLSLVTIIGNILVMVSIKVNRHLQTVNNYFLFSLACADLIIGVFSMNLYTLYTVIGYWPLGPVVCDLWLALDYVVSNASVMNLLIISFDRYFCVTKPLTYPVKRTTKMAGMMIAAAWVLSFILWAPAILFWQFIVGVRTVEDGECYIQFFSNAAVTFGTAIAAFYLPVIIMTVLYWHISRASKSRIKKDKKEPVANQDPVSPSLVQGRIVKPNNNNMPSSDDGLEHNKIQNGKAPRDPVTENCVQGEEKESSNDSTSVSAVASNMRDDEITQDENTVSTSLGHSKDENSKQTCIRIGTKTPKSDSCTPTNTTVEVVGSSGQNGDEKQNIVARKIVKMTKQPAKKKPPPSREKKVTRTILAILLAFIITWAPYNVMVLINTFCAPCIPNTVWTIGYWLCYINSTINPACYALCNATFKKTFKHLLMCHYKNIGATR

Opiate κ (OP2, KOP) = biological target: T6, Opiate κ (OP2, KOP) (Homo sapiens, UniProt P41145); experiment: Radioligand binding, Opiate κ (OP2, KOP)
T6 construct: Eurofins Panlabs, Inc
T6 sequence (P41145 whole entry): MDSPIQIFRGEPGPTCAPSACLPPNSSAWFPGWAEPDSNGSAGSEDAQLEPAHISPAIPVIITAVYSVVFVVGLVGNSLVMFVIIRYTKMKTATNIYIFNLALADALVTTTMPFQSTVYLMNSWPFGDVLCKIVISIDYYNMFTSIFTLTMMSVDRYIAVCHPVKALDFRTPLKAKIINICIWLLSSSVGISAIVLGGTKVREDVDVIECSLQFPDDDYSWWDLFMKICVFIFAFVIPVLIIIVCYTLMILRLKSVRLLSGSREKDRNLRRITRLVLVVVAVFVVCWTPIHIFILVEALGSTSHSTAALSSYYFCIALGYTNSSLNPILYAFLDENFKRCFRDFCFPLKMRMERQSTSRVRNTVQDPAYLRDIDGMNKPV

Potassium Channel [KATP] = biological target: T7, Potassium Channel [KATP] (Cricetus cricetus, UniProt Q09427); experiment: Radioligand binding, Potassium Channel [KATP]; settings: hamster
T7 construct: Eurofins Panlabs
T7 sequence (Q09427 whole entry): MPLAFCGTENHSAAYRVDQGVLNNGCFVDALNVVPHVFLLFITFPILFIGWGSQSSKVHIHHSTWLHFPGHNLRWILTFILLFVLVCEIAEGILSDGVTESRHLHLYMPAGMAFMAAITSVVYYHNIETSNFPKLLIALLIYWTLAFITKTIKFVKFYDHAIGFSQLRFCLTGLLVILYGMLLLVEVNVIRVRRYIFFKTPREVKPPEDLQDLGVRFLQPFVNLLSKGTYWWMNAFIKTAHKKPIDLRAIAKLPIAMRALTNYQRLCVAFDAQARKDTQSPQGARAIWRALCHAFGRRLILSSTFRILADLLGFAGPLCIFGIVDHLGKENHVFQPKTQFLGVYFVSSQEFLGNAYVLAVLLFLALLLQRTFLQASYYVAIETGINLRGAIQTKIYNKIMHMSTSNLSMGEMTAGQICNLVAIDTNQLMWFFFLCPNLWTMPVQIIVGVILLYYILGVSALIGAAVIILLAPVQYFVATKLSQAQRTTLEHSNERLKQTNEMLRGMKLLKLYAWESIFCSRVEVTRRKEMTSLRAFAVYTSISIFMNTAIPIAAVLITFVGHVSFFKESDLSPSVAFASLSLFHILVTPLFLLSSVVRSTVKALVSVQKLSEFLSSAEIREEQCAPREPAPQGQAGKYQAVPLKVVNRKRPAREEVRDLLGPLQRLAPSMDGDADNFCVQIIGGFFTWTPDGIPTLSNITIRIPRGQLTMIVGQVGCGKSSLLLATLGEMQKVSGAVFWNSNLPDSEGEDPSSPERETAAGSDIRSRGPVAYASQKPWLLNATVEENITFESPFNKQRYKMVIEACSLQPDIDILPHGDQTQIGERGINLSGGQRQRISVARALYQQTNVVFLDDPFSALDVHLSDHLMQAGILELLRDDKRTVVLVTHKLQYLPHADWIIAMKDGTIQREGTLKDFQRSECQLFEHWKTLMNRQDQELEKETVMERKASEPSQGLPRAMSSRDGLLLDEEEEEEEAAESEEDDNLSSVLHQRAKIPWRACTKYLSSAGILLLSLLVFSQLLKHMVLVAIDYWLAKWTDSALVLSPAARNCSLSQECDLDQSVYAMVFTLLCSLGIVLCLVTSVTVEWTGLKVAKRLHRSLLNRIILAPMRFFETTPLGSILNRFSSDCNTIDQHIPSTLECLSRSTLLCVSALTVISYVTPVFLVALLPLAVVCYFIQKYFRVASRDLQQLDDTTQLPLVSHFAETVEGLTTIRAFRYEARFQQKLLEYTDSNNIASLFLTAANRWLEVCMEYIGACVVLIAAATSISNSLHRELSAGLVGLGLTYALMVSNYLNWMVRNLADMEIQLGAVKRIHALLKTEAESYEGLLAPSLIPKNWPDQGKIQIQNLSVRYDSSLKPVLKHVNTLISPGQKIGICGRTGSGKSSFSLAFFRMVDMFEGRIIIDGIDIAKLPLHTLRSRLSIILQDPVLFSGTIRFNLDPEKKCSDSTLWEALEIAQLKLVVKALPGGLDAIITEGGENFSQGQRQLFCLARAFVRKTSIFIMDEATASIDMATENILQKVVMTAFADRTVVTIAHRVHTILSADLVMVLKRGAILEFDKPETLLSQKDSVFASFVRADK
Experimental: To evaluate, in radioligand binding assays, the activity of the compound of Example 1 across a panel of 67 receptors.
Methods employed in this study have been adapted from the scientific literature to maximize reliability and reproducibility. Reference standards were run as an integral part of each assay to ensure the validity of the results obtained.
Where presented, IC50 values were determined by a non-linear, least squares regression analysis using MathIQ™ (ID Business Solutions Ltd., UK). Where inhibition constant (Ki) are presented, the Ki values were calculated using the equation of Cheng and Prusoff (Cheng. Y., Prusoff, W. H., Biochem. Pharmacol. 22:3099-3108, 1973) using the observed IC50 of the tested compound, the concentration of radioligand employed in the assay, and the historical values of the KD of the ligand (obtained experimentally at Eurofins Panlabs, Inc.). Where presented, the Hill coefficient (nH), defining the slope of the competitive binding curve, was calculated using MathIQ™. […] Where IC50, Ki, and/or nH data are presented without Standard Error of the Mean (SEM), data are insufficient to be quantitative, and the values presented (Ki, IC50, nH) should be interpreted with caution.

[2] = biological target: T8, Transporter, Dopamine (DAT) (Homo sapiens, UniProt Q01959); experiment: Radioligand binding, Transporter, Dopamine (DAT)
T8 construct: Eurofins Panlabs
T8 sequence (Q01959 whole entry): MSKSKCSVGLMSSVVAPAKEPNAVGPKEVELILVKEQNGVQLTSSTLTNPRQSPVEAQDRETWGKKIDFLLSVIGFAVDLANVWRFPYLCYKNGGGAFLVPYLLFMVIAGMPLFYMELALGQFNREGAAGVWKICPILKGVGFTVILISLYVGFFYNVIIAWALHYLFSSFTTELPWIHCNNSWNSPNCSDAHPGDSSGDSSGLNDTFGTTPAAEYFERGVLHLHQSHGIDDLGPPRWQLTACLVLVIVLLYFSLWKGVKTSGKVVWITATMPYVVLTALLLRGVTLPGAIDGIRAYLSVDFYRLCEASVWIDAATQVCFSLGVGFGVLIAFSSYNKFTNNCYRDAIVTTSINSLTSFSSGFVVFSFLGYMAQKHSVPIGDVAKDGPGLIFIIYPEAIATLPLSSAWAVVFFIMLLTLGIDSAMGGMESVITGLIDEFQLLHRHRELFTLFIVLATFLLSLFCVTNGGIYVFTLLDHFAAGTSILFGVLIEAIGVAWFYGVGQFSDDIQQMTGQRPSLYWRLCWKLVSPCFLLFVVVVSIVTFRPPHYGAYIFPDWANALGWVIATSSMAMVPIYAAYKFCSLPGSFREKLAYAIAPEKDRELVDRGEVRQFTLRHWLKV

| Compound | EC50 (TRPM1) | inhibition at 10 µM (Adrenergic β2) | inhibition at 10 µM [1] | inhibition at 10 µM (Estrogen ERα) | inhibition at 10 µM (GABAB1A) | inhibition at 10 µM (Muscarinic M2) | inhibition at 10 µM (Opiate κ (OP2, KOP)) | inhibition at 10 µM (Potassium Channel [KATP]) | inhibition at 10 µM [2] |
| --- | --- | --- | --- | --- | --- | --- | --- | --- | --- |
| NS(=O)(=O)c1ccc(NC2=CC(=O)c3ccccc3C2=O)cc1 [4-((1,4-dioxo-1,4-dihydronaphthalen-2-yl)amino)benzenesulfonamide] | 160 nM |  |  |  |  |  |  |  |  |
| NS(=O)(=O)c1ccc(NC2=CC(=O)c3ccccc3C2=O)cc1 [Example 1, 4-((1,4-Dioxo-1,4-dihydronaphthalen-2-yl)amino)benzenesulfonamide] |  | 10% | 11% | 5% | 11% | 15% | 19% | 10% | 2% |
